In one test the target is T1, FLT3 K663Q (Homo sapiens, UniProt P36888, K663Q).
T1 construct: purchased DiscoverX (KINOMEscan); host or cells: E. coli (T7 phage) or HEK-293
T1 sequence (P36888 27-993 K663Q): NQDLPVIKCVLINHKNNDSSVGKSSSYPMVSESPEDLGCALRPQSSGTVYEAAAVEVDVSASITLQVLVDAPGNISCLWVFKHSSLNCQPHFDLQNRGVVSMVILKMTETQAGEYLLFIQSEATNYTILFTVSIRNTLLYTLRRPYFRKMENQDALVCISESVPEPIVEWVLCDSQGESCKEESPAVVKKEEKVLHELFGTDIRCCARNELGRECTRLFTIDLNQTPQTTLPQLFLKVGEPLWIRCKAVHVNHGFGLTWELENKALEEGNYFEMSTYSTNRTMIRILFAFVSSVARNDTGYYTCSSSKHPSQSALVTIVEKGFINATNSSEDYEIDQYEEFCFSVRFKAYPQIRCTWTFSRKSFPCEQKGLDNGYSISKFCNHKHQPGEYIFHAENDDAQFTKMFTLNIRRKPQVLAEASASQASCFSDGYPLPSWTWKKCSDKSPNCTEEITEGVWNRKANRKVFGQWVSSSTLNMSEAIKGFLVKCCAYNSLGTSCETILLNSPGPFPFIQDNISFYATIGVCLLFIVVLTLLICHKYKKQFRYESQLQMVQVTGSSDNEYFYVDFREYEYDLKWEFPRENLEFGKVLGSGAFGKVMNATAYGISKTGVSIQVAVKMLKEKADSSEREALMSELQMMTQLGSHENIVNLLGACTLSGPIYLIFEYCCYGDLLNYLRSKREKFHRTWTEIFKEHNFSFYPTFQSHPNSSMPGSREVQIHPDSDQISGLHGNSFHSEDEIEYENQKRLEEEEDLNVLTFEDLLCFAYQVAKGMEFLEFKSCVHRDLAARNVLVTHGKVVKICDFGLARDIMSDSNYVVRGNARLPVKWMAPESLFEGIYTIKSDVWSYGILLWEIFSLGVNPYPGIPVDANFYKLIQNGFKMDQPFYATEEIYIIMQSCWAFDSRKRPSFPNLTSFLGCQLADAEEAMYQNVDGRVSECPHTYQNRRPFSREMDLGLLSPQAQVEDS
The test can be described thus: DiscoverX KINOMEscan competition binding assay, FLT3 K663Q. The source says: (§1) Kinase binding data were obtained for various exemplary compounds prepared according to Examples 1-25 using the DiscoverX KINOMEscan® active site-directed competition binding site-directed assay protocol described below. […] As a result, the data report thermodynamic interaction affinities (Kd values), rather than IC50 values that are dependent on ATP concentrations. The assay uses a DNA-tagged version of the protein kinase, and an immobilized ligand bound to a solid support. Compounds that directly or indirectly prevent kinase binding to the immobilized ligand reduce the amount of kinase captured on the solid support, which is detected using an ultra-sensitive qPCR method. Affinity constants reported from the assay have been reported to be independent of the immobilized ligand used that is coupled to the solid support (See supplemental information in Fabian, M. A. et. al., (2005) Nat. Biotechnol. 23, 329-336; Wodicka, L. M. et. al., (2010) Chem. Biol. 17, 1241-1249.)
(§2) Kinase-tagged T7 phage strains were prepared in an E. coli host derived from the BL21 strain. E. coli were grown to log-phase and infected with T7 phage and incubated with shaking at 32° C. until lysis. The lysates were centrifuged and filtered to remove cell debris. The remaining kinases were produced in HEK-293 cells and subsequently tagged with DNA for qPCR detection. […] The liganded beads were blocked with excess biotin and washed with blocking buffer (SeaBlock (Pierce), 1% BSA, 0.05% Tween 20, 1 mM DTT) to remove unbound ligand and to reduce non-specific binding. […] Test compounds were prepared as 111× stocks in 100% DMSO. Kds were determined using an 11-point 3-fold compound dilution series with three DMSO control points. […] The compounds were then diluted directly into the assays such that the final concentration of DMSO was 0.9%. All reactions were performed in polypropylene 384-well plates. Each was a final volume of 0.02 mL. […] The kinase concentration in the eluates was measured by qPCR.
(§3) Binding constants (Kds) were calculated with a standard dose-response curve using the Hill equation. […]

The next test addresses T2, FLT3 R834Q (Homo sapiens, UniProt P36888, R834Q).
T2 construct: purchased DiscoverX (KINOMEscan); host or cells: E. coli (T7 phage) or HEK-293
T2 sequence (P36888 27-993 R834Q): T1 sequence (P36888 27-993 K663Q) with Q637K, R808Q
The test can be described thus: DiscoverX KINOMEscan competition binding assay, FLT3 R834Q.
Source text: as §1, §2, §3

From patent US12534469B2 (CHILDREN'S HOSPITAL MEDICAL CENTER, priority 2020, dated 2026) come the findings set out here.

SMILES strings stand for the structures. Positions count from the first letter of the chain named.

The term Kd denotes the free concentration of one partner at which half of the binding sites on the other are occupied at equilibrium, for simple one-to-one binding.

Take `COc1cc2ncc(-c3cccc(N[C@@H]4CCNC4)n3)n2nc1C1CC1` [Compound 97, (R)-6-(6-cyclopropyl-7-methoxyimidazo[1,2-b]pyridazin-3-yl)-N-(pyrrolidin-3-yl)pyridin-2-amine]: the dissociation constant (Kd) on FLT3 K663Q was 1.4 nM; at FLT3 R834Q, 0.8 nM.

`COc1cc2ncc(-c3cccc(N[C@H]4CNCC[C@@H]4F)n3)n2nc1C1CC1` [Compound 102, 6-(6-cyclopropyl-7-methoxyimidazo[1,2-b]pyridazin-3-yl)-N-((3S,4S)-4-fluoropiperidin-3-yl)pyridin-2-amine]: the Kd amounted to 0.37 nM at FLT3 K663Q and 0.61 nM on FLT3 R834Q.

With `COc1cc2ncc(-c3cccc(N[C@H]4CNC[C@@H]4F)n3)n2nc1C1CC1` [Compound 96, 6-(6-cyclopropyl-7-methoxyimidazo[1,2-b]pyridazin-3-yl)-N-((3S,4S)-4-fluoropyrrolidin-3-yl)pyridin-2-amine], the Kd turned out to be 0.6 nM on FLT3 K663Q and 1.6 nM on FLT3 R834Q.
